This passage reports TGI and GI50 results from PubChem BioAssay (NCI).

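1) Cells in 96-well plates. 2) Compound, 48 h, 5 concentrations. 3) Linear interpolation between surrounding doses. 4) Unreached endpoint = highest concentration. GI50 marks 50% less growth. At the TGI there is no net growth.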 Where only a bound is given, the exact number is not on record here.

What all share (assay): NCI-60 cell line screen, 48 h
Assay [1] has as its system SF-268 CNS.
In assay [2] the test system is SN12C renal.
Assay [3] deals with 786-0 renal.
Assay [4] concerns SF-295 CNS.
Assay [5] has as its system CAKI-1 renal.
Assay [6] concerns UO-31 renal.
Assay [7] has as its system HT29 colon.
The subject of assay [8] is M14 melanoma.
The subject of assay [9] is NCI-H23 lung.
For assay [10], the system named is MDA-N.
The test system of assay [11] is DU-145 prostate.
For assay [12], the system named is MDA-MB-231 breast.
Assay [13] concerns HS 578T breast.

In the case of `COC(=O)C(Cc1nc2ccccc2[nH]c1=O)C(=O)C(=O)Nc1ccc(OC)cc1[N+](=O)[O-]` (stereo unspecified), the TGI in [1], in assay [2], in assay [3], in [4], in assay [5] and in assay [6] was greater than 100 µM each time. The TGI in [7], in assay [8] and in [9] was greater than 100 µM in each case.

As for `CCn1cnc2c(NC(C)=O)ncnc21`, the TGI in assay [10], in [2], in assay [3], in [11], in assay [4] and in assay [5] was greater than 100 µM each time. In addition, the TGI in assay [6], in assay [12], in assay [7], in assay [8] and in assay [9] was greater than 100 µM in each case.

As to `O=C(CSc1nnc(-c2ccc(N=Cc3ccc(Cl)cc3)cc2)o1)Nc1cccc(Cl)c1`, the TGI in assay [1], in [2], in [3], in assay [4], in [6] and in [7] was greater than 100 µM throughout. Moreover, the TGI in assay [8] and in assay [9] was greater than 100 µM in each case.

In the case of `S=C(Nc1ccccc1)N1N=C2c3ccccc3CC[C@H]2[C@@H]1c1ccccc1`, the TGI in assay [1], in [2], in assay [3], in [6], in assay [7] and in assay [8] was greater than 100 µM each time. Further, the TGI in [9] is greater than 100 µM.

Consider `COc1cc([C@@H]2c3cc4c(c(O)c3C[C@H]3COC(=O)[C@@H]32)OCO4)cc(OC)c1O`, for which the GI50 is 0.0043 µM in [1]; 0.00372 µM in assay [2]; 0.00304 µM in [4]; 0.00611 µM in assay [5]; 0.0182 µM in assay [7]. Also, the TGI in assay [1] was greater than 200 µM; in assay [2], 0.431 µM; in assay [4], less than 0.02 µM; in assay [5], less than 0.02 µM; in [6], greater than 77.7 µM; in assay [7], 1.53 µM. In assay [9], this molecule registered a TGI of 0.637 µM.

For `CSc1ccc2c(cc1=O)[C@@H](NC(=O)c1ccc(F)cc1)CCc1cc(O)c(O)c(O)c1-2`, the TGI in [1], in [2], in [3], in [4], in assay [5] and in assay [6] was greater than 100 µM throughout. Besides, the TGI in assay [7], in assay [8] and in assay [9] was greater than 100 µM in each case.

For the molecule `Cc1cc(NCCCCCCNc2cc(C)nc3ccc(Cl)cc23)c2cc(Cl)ccc2n1`, the TGI was 32.5 µM in assay [1]; 47.2 µM in [2]; 32 µM in assay [3]; 31.2 µM in assay [4]; greater than 100 µM in assay [5]; 62.2 µM in assay [6]. For the same molecule, the values for the TGI in assay [7], in assay [8] and in [9] were 33.5 µM, greater than 100 µM and 30.7 µM, respectively.

Consider `C/C(=N\Nc1nc2ccccc2o1)c1ccncn1`, for which the TGI in [1] was greater than 53.8 µM; in [2] it was greater than 100 µM; in [3], 18.3 µM; in [13], 27.1 µM; in [4], greater than 100 µM; in assay [5] it was 42.6 µM. Further, the TGI was 75.5 µM in [6], 97.1 µM in assay [12], greater than 35.6 µM in assay [7] and greater than 47.7 µM in [9].

In the case of `COc1cc(C=O)c(-c2cc3c(cc2C=O)OCO3)c(OC)c1OC`, the TGI is greater than 290 µM in assay [1]; 260 µM in assay [2]; greater than 290 µM in assay [3]; 219 µM in assay [4]; greater than 290 µM in assay [5]; 186 µM in assay [7]. In assay [9], the TGI was 222 µM.

With `CCNCCNC(=O)c1ccc(Br)cc1`, the TGI in [1], in assay [2], in [3], in assay [13], in assay [5] and in assay [6] was greater than 100 µM in each case. The TGI in [7], in assay [8] and in assay [9] was greater than 100 µM each time.

On to `C/C(=N/N)c1ccc2[nH]c3c(C)cc([N+](=O)[O-])c(C)c3c2c1`, for which the TGI in assay [1] came to 60.4 µM; in assay [2], 15.8 µM; in assay [3], 22.2 µM; in assay [4], 35.5 µM; in assay [6], 22.4 µM; in assay [7], 90.1 µM. In [8], this molecule came in with a TGI of 30.4 µM.

As to `OCSc1nn(CO)c(=S)s1`, the TGI in assay [1] is 50.5 µM; in assay [2], 49.4 µM; in assay [3], 58.9 µM; in [13] it was 42.4 µM; in assay [11], 57.6 µM; in assay [4], 71.9 µM. Besides, the TGI in [5] was greater than 100 µM; in [12], 68.1 µM; in assay [7] it was 75.3 µM; in assay [8], 38.2 µM; in assay [9], 40.5 µM.

Turning to `COc1cc2c(cc1O)C(C)Cc1cc3c(cc1N(C)CC2)OCO3` (stereo unspecified), the TGI is 36.2 µM in [1]; 18.3 µM in [2]; 17.4 µM in [3]; 10.3 µM in assay [4]; greater than 74.3 µM in [5]; 37.8 µM in assay [6]. For the same molecule, the figures for the TGI in [7], in assay [8] and in assay [9] were 29.7 µM, 19 µM and 20.3 µM, respectively.

Take `O=C(c1ccccc1)c1c(CNCc2ccccc2)n(C(=O)c2ccccc2)c2ccccc12`: the TGI in assay [1] is greater than 100 µM; in assay [3], greater than 100 µM; in assay [4], 41.7 µM; in [5] it was greater than 100 µM; in assay [6], 56.1 µM; in assay [7] it was greater than 100 µM. Further, the TGI in assay [8] and in assay [9] was greater than 100 µM throughout.
